Here are results for 33 compounds from patent publication US5945434A, “Indazole derivatives having monocyclic amine” (Nisshin Flour Milling Co., Ltd., priority 1995, dated 1999).

In experiment [1] the target is T1, 5-HT4 receptor (rat oesophageal tunica muscularis mucosae) (Rattus norvegicus, UniProt Q62758).
T1 construct: oesophageal tunica muscularis mucosae excised from rats; from tissue; host or cells: rat oesophageal tunica muscularis mucosae
The experiment can be described thus: 5-HT4 agonist activity: relaxation of carbachol-contracted rat oesophageal tunica muscularis mucosae. It counts as cell-based. As for the experimental part:
The agonist activities of the indazole derivatives of the present invention and Mosapride were determined by the following method, that is, the method determining 5-HT4 agonist activity by using rat oesophageal tunica muscularis mucosae (Naunyn-Schmiedeberg's Arch. Pharmacol., Vol. 343, 439-446, 1991).
According to the method of the literature, the oesophageal tunica muscularis mucosae excised from rats were suspended in an organ bath containing Krebs-Henseleit solution aerated with a mixed gas (95% O2, 5% CO2) and contracted with carbachol (1×10^-6 M). After the contraction was stabilized, the cumulative administration of the compounds was performed to determine the relaxation of the rat oesophagus pre-contracted with carbachol. The concentration (ED50) to cause 50% relaxation of the carbachol-induced contraction was measured. The result is expressed in terms of -log ED50 and shown in the following table in which higher numerical value indicates higher activity.

For experiment [2] the following is noted: U.S. Pat. No. 3,145,215; cited from earlier work.
Experiment [3] relates to 5-HT4 receptor. The settings on record: WO 9303725; cited from earlier work.
[4] abbreviates: concentration causing 50% relaxation of the carbachol (1×10^-6 M)-induced contraction, cumulative administration, read-out: Activity (-log ED50) (converted).

Read-outs that look alike come from different tables or passages of the source.

T1 sequence (Q62758 whole entry): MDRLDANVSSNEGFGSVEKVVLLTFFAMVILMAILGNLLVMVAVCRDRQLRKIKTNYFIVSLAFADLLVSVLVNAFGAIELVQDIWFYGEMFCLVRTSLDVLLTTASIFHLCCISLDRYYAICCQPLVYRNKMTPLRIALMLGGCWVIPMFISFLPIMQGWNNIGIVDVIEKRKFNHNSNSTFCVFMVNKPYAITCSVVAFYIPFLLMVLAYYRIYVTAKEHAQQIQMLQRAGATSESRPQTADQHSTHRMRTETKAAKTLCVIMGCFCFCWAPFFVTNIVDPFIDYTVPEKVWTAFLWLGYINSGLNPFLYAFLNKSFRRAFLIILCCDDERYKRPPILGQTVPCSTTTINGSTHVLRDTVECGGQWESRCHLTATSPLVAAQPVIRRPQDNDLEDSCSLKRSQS

`CCCCN1CCN(CCNC(=O)c2nn(C(C)CC)c3ccccc23)CC1` (stereo not drawn) [Compound 13, N-[2-(4-n-Butyl-1-piperazinyl)ethyl]-1-sec-butylindazole-3-carboxamide] had an EC50 in experiment [1] of 5.5 µM.

Compound `CCCn1nc(C(=O)NCC2CCN(C)CC2)c2ccccc21` [Compound 7, N-(1-Methyl-4-piperidyl)methyl-1-n-propylindazole-3-carboxamide] showed an EC50 in experiment [1] of 5.01 µM.

For `CCCn1nc(C(=O)NCCN2CCN(Cc3ccc(OC)cc3)CC2)c2ccccc21` [Compound 28, N-[2-(4-p-Methoxybenzyl-1-piperazinyl)ethyl]-1-n-propylindazole-3-carboxamide], the EC50 in experiment [1] is 1.58 µM.

As to `CCCCN1CCN(CCNCc2nn(CCC)c3ccccc23)CC1` [Compound 33, 3-{N-[2-(4-n-Butyl-1-piperazinyl)ethyl]aminomethyl}-1-n-propylindazole], the EC50 in experiment [1] (setting [4]) was 29.5 µM.

Turning to `CCCn1nc(C(=O)NC2CCN(C)CC2)c2ccccc21` [Compound 22, N-(1-Methyl-4-piperidyl)-1-n-propylindazole-3-carboxamide], in experiment [1], the EC50 is 6.92 µM.

Compound `CCCn1nc(C(=O)NCC2CCNCC2)c2ccccc21` [Compound 21, N-(4-Piperidyl)methyl-1-n-propylindazole-3-carboxamide] gave an EC50 in experiment [1] of 47.9 µM.

`CCCCN1CCN(CCNC(=O)c2nn(C(C)C)c3ccccc23)CC1` [Compound 30, N-[2-(4-n-Butyl-1-piperazinyl)ethyl]-1-isopropylindazole-3-carboxamide]: the EC50 in experiment [1] was 2.95 µM.

Regarding `CCCn1nc(C(=O)NCC=C2CCN(C)CC2)c2ccccc21` [Compound 4, N-[2-(1-Methyl-4-piperidylidene)ethyl]-1-n-propylindazole-3-carboxamide], the EC50 in experiment [1] is 9.77 µM.

Turning to `CCCCN1CCC(=CCNC(=O)c2nn(CCC)c3ccccc23)CC1` [Compound 5, N-[2-(1-n-Butyl-4-piperidylidene)ethyl]-1-n-propylindazole-3-carboxamide], the EC50 in experiment [1] is 0.437 µM.

`CCCCCN1CCN(CCNC(=O)c2nn(CCC)c3ccccc23)CC1` [Compound 27, N-[2-(4-n-Pentyl-1-piperazinyl)ethyl]-1-n-propylindazole-3-carboxamide]: the EC50 in experiment [1] was 2.69 µM.

In experiment [1], `CCCCN1CCC(CCNC(=O)c2nn(CCC)c3ccccc23)CC1` [Compound 19, N-[2-(1-n-Butyl-4-piperidyl)ethyl]-1-n-propylindazole-3-carboxamide] showed an EC50 of 1.29 µM.

The compound `CCCCN1CCN(CCNC(=O)c2nn(CC)c3ccccc23)CC1` [Compound 29, N-[2-(4-n-Butyl-1-piperazinyl)ethyl]-1-ethylindazole-3-carboxamide] had an EC50 in experiment [1] of 10.2 µM.

Regarding `CCCn1nc(C(=O)NC2CCN(Cc3ccccc3)CC2)c2ccccc21` [Compound 17, N-(1-Benzyl-4-piperidyl)-1-n-propylindazole-3-carboxamide], the EC50 in experiment [1] is 3.39 µM.

In turn, `CCCCN1CCC(NC(=O)c2nn(CCC)c3ccccc23)CC1` [Compound 23, N-(1-n-Butyl-4-piperidyl)-1-n-propylindazole-3-carboxamide] had an EC50 in experiment [1] of 2.82 µM.

For `CCCn1nc(C(=O)NCCN2CCN(Cc3ccc(F)cc3)CC2)c2ccccc21` [Compound 15, N-[2-(4-p-Fluorobenzyl-1-piperazinyl)ethyl]-1-n-propylindazole-3-carboxamide], the EC50 in experiment [1] was 6.76 µM.

As to `C=CCn1nc(C(=O)NCCN2CCN(Cc3ccc(F)cc3)CC2)c2ccccc21` [Compound 16, N-[2-(4-p-Fluorobenzyl-1-piperazinyl)ethyl]-1-allylindazole-3-carboxamide], the EC50 in experiment [1] is 7.41 µM.

In experiment [1], `CCCCN1CCN(CCCNC(=O)c2nn(CCC)c3ccccc23)CC1` [Compound 1, N-[3-(4-n-Butyl-1-piperazinyl)propyl]-1-n-propylindazole-3-carboxamide] showed an EC50 of 10.5 µM.

Compound `CCCCN1CCC(CNC(=O)c2nn(CCC)c3ccccc23)CC1` [Compound 18, N-(1-n-Butyl-4-piperidyl)methyl-1-n-propylindazole-3-carboxamide] had an EC50 in experiment [1] of 7.94 µM.

`CCCn1nc(C(=O)NC2CCNCC2)c2ccccc21` [Compound 20, N-(4-Piperidyl)-1-n-propylindazole-3-carboxamide]: the EC50 in experiment [1] is 112 µM.

Compound `CCCCN1CCN(CCNC(=O)c2nn(C3CCCC3)c3ccccc23)CC1` [Compound 31, N-[2-(4-n-Butyl-1-piperazinyl)ethyl]-1-cyclopentylindazole-3-carboxamide] gave an EC50 in experiment [1] of 5.01 µM.

On to `CCCCN1CCN(CCNC(=S)c2nn(CCC)c3ccccc23)CC1` [Compound 32, N-[2-(4-n-Butyl-1-piperazinyl)ethyl]-1-n-propylindazole-3-thiocarboxamide], for which, in experiment [1] (setting [4]), the EC50 is 10.5 µM.

For the compound `CCCN1CCN(CCNC(=O)c2nn(CCC)c3ccccc23)CC1` [Compound 26, N-[2-(4-n-Propyl-1-piperazinyl)ethyl]-1-n-propylindazole-3-carboxamide], the EC50 in experiment [1] is 8.91 µM.

In the case of `CCCn1nc(C(=O)NCCN2CCN(C)CC2)c2ccccc21` [Compound 2, N-[2-(4-Methyl-1-piperazinyl)ethyl]-1-n-propylindazole-3-carboxamide], the EC50 in experiment [1] is 20.4 µM.

For `CN1CCN(CCNC(=O)c2n[nH]c3ccccc23)CC1` [N-[2-(4-methyl-1-piperazinyl)ethyl]-1H-indazole-3-carboxamide], in experiment [2], the “hypotensive activity (in words)” value was “has hypotensive activity”.

The compound `CCCn1nc(C(=O)NCC=C2CCN(Cc3ccc(F)cc3)CC2)c2ccccc21` [Compound 12, N-[2-(1-p-Fluorobenzyl-4-piperidylidene)ethyl]-1-n-propylindazole-3-carboxamide] showed an EC50 in experiment [1] of 3.39 µM.

For `CCCCN1CCN(CCNC(=O)c2nn(C(CC)CC)c3ccccc23)CC1` [Compound 14, N-[2-(4-n-Butyl-1-piperazinyl)ethyl]-1-(3-pentyl)indazole-3-carboxamide], the EC50 in experiment [1] is 6.03 µM.

With `O=C(NCC=C1CCN(Cc2ccc(F)cc2)CC1)c1n[nH]c2ccccc12` [Compound 9, N-[2-(1-p-Fluorobenzyl-4-piperidylidene)ethyl]-1H-indazole-3-carboxamide], the EC50 in experiment [1] (setting [4]) was 7.41 µM.

Regarding `O=C(NCCN1CCN(Cc2ccc(F)cc2)CC1)c1n[nH]c2ccccc12` [Compound 11, N-[2-(4-p-Fluorobenzyl-1-piperazinyl)ethyl]-1H-indazole-3-carboxamide], in experiment [1] (setting [4]), the EC50 was 12.6 µM.

In experiment [1], `CCCCN1CCCC(NC(=O)c2nn(CCC)c3ccccc23)CCC1` [Compound 6, N-(1-n-Butyl-5-octahydroazocinyl)-1-n-propylindazole-3-carboxamide] had an EC50 of 6.46 µM.

For the compound `CCCCN1CCC(COC(=O)c2nn(C)c3ccccc23)CC1` [(1-butyl-4-piperidyl)methyl-1-methylindazole-3-carboxylate], the “5-HT4 receptor antagonist activity (in words)” value in experiment [3] is listed as “has a 5-HT4 receptor antagonist activity”.

Compound `CCCn1nc(C(=O)NCCC2CCN(C)CC2)c2ccccc21` [Compound 8, N-[2-(1-Methyl-4-piperidyl)ethyl]-1-n-propylindazole-3-carboxamide] had an EC50 in experiment [1] of 10.7 µM.

On to `CCCCN1CCN(CCNC(=O)c2nn(CCC)c3ccccc23)CC1` [Compound 3, N-[2-(4-n-Butyl-1-piperazinyl)ethyl]-1-n-propylindazole-3-carboxamide], for which the EC50 in experiment [1] was 2.4 µM.

`C=CCN1CCN(CCNC(=O)c2nn(CCC)c3ccccc23)CC1` [Compound 25, N-[2-(4-Allyl-1-piperazinyl)ethyl]-1-n-propylindazole-3-carboxamide] gave an EC50 in experiment [1] of 6.03 µM.
